In patent US20260325561A1, “4'-SUBSTITUTED NUCLEOSIDES AND NUCLEOTIDES AS ANTIVIRAL AGENTS” (THE SCRIPPS RESEARCH INSTITUTE, priority 2023, published 2026) one finds EC50 and CC50 data, which are given here for 15 molecules.

As usually defined, the CC50 is the concentration at which the toxic effect on the cells reaches its halfway point.

Bounds are passed on as bounds.

The subject of data set [1] is DENV-2. The data set can be described thus: microbe, parasite or virus in culture. The class given is cell-based, DENV-2 16681. The conditions noted are these: Dengue virus, DENV2, HepG2, 24 h, read-out: DENV-2 / HepG2 EC50.
The test system of data set [2] is SARS-CoV-2. The data set can be described thus: microbe, parasite or virus in culture. It counts as cell-based, SARS-CoV-2 strain USA-WA1/2020. Conditions: Severe acute respiratory syndrome coronavirus 2, HeLa-ACE2, 24 h, read-out: SARS-CoV-2 / HeLa-ACE2 EC50.
In data set [3] the test system is HRV 14. The data set can be described thus: microbe, parasite or virus in culture. It counts as cell-based, Human Rhinovirus 14 strain 1059. The conditions noted are these: Rhinovirus B, H1-HeLa, 48 h, read-out: HRV / H1 HeLa B 14 EC50.
The subject of data set [4] is HRV 16. The data set can be described thus: microbe, parasite or virus in culture. It counts as cell-based, Human Rhinovirus 16 strain 11757. Conditions: Rhinovirus A, H1-HeLa, 48 h, read-out: HRV / H1 HeLa A16 EC50.
Data set [5] is described as follows: in vitro. Conditions: human, hepg2 cells.
Data set [6] can be described thus: in vitro. Conditions: human, hela-ace2 cells.
The nature of data set [7]: in vitro. The conditions noted are these: human, h1 hela cells.
Data set [8] deals with RSV A2. The data set can be described thus: microbe, parasite or virus in culture. The class given is cell-based. Conditions: human respiratory syncytial virus, HEp-2, 72 h, read-out: RSV A2 / Hep2 EC50.
A short description of data set [9]: in vitro. The conditions noted are these: human, hep2 cells.

Consider `CC(C)OC(=O)[C@H](C)N[P@@](=O)(OC[C@@]1(F)O[C@@H](n2ccc3c(N)ncnc32)[C@H](O)[C@@H]1O)Oc1ccccc1` [Example 49, isopropyl ((R)-(((2S,3S,4R,5R)-5-(4-amino-7H-pyrrolo[2,3-d]pyrimidin-7-yl)-2-fluoro-3,4-dihydroxytetrahydrofuran-2-yl)methoxy)(phenoxy)phosphoryl)-L-alaninate], for which the EC50 in data set [1] is 1 to 10 µM; in [2], more than 10 µM; in [3] it was 1 to 10 µM; in [4], more than 10 µM. In data set [5], this molecule registered a CC50 at 72 h of more than 99 µM. Also, the CC50 at 24 h in data set [6] is more than 99 µM. In addition, the CC50 in data set [7] is more than 99 µM.
`C[C@H](NP(=O)(OC[C@@]1(F)O[C@@](C#N)(c2cnc3c(N)ncnn23)[C@H](O)[C@@H]1O)Oc1cccc2ccccc12)C(=O)OCC(C)(C)C` (stereo partly drawn) [Example 65, neopentyl ((((2S,3S,4R,5R)-5-(4-aminoimidazo[2,1-f][1,2,4]triazin-7-yl)-5-cyano-2-fluoro-3,4-dihydroxytetrahydrofuran-2-yl)methoxy)(naphthalen-1-yloxy)phosphoryl)-L-alaninate]: the EC50 in data set [1] is 1 to 10 µM; in [2], 1 to 10 µM; in [8] it was more than 10 µM; in data set [3], more than 10 µM. In addition, the CC50 at 72 h in [5] is 1 to 10 µM. In addition, the CC50 at 24 h in data set [6] lay within 10 to 99 µM. Besides, the CC50 in data set [9] and in data set [7] was 10 to 99 µM throughout.
Take `CSc1nc(N)nc2c1ncn2[C@@H]1O[C@](F)(CO)[C@@H](O)[C@H]1O` [Example 28]: the EC50 was 0.1 to 1 µM in data set [1], more than 10 µM in [2], 0.1 to 1 µM in data set [8] and more than 10 µM in [3]. In data set [5], this molecule came in with a CC50 at 72 h of 1 to 10 µM. Besides, the CC50 at 24 h in data set [6] is 1 to 10 µM. Besides, the CC50 in data set [9] and in data set [7] was 1 to 10 µM each time.
`CC(C)C(=O)OC[C@@]1(F)O[C@@H](n2ccc3c(N)ncnc32)[C@H](OC(=O)C(C)C)[C@@H]1OC(=O)C(C)C` [Example 47, (2S,3S,4R,5R)-5-(4-amino-7H-pyrrolo[2,3-d]pyrimidin-7-yl)-2-fluoro-2-((isobutyryloxy)methyl)tetrahydrofuran-3,4-diyl bis(2-methylpropanoate)]: the EC50 in data set [1] was less than 0.1 µM; in data set [2], 1 to 10 µM; in data set [8], less than 0.1 µM; in data set [3], 1 to 10 µM. In [5], this molecule displayed a CC50 at 72 h of 1 to 10 µM. The CC50 at 24 h in data set [6] was in the range of 10 to 99 µM. The CC50 in [9] fell in the range of 1 to 10 µM; in [7], 10 to 99 µM.
Turning to `N#C[C@@]1(c2cnc3c(N)ncnn23)O[C@](F)(CO)[C@@H](O)[C@H]1O` [Example 51, (2R,3R,4S,5S)-2-(4-aminoimidazo[2,1-f][1,2,4]triazin-7-yl)-5-fluoro-3,4-dihydroxy-5-(hydroxymethyl)tetrahydrofuran-2-carbonitrile], the EC50 in data set [1], in data set [2], in [8] and in [3] was more than 10 µM each time. In [5], this molecule gave a 50% cytotoxic concentration (CC50) at 72 h of more than 99 µM. Besides, the CC50 at 24 h in [6] is more than 99 µM. Further, the CC50 in data set [9] and in data set [7] was more than 99 µM in each case.
For the molecule `CNc1nc(N)nc2c1ncn2[C@@H]1O[C@](F)(COP(=O)(N[C@@H](C)C(=O)OC(C)C)Oc2ccccc2)[C@@H](O)[C@]1(F)Cl` (single isomer, unassigned) [Example 58], the EC50 in data set [1] was 0.1 to 1 µM; in data set [2] it was more than 10 µM; in [8], more than 10 µM; in data set [3], 0.1 to 1 µM. Also, in data set [5], the CC50 at 72 h was more than 99 µM. The molecule further gave a CC50 at 24 h in data set [6] of more than 99 µM. Further, the CC50 in data set [9] and in data set [7] was more than 99 µM each time.
`COc1ncnc2c1ccn2[C@@H]1O[C@](F)(CO)C[C@H]1O` [Example 39, (2R,3R,5R)-5-fluoro-5-(hydroxymethyl)-2-(4-methoxy-7H-pyrrolo[2,3-d]pyrimidin-7-yl)tetrahydrofuran-3-ol]: the EC50 in data set [1], in data set [2], in [8] and in data set [3] was more than 10 µM throughout. In data set [5], this molecule came in with a cytotoxic concentration (CC50) at 72 h of more than 99 µM. The molecule further registered a 50% cytotoxic concentration (CC50) at 24 h in [6] of more than 99 µM. Moreover, the CC50 in data set [9] and in [7] was more than 99 µM each time.
Consider `CCOc1nc(N)nc2c1ncn2[C@@H]1O[C@](F)(CO)[C@@H](O)[C@]1(F)Br` [Example 68, (2S,3R,4S,5R)-5-(2-amino-6-ethoxy-9H-purin-9-yl)-4-bromo-2,4-difluoro-2-(hydroxymethyl)tetrahydrofuran-3-ol], for which the EC50 in [1], in data set [2], in data set [8] and in [3] was more than 10 µM in each case. This molecule had a CC50 at 72 h in [5] of 10 to 99 µM. This molecule displayed a CC50 at 24 h in data set [6] of more than 99 µM. In addition, the CC50 in [9] and in data set [7] was 10 to 99 µM each time.
For `COc1ncnc2c1c(C(N)=O)cn2[C@@H]1O[C@](F)(CO)[C@@H](O)[C@H]1O` [Example 38, 7-((2R,3R,4S,5S)-5-fluoro-3,4-dihydroxy-5-(hydroxymethyl)tetrahydrofuran-2-yl)-4-methoxy-7H-pyrrolo[2,3-d]pyrimidine-5-carboxamide], the EC50 in [1] is 1 to 10 µM; in data set [2] it was more than 10 µM; in data set [8] it was more than 10 µM; in [3], more than 10 µM. The CC50 at 72 h in data set [5] fell in the range of 1 to 10 µM. The molecule also came in with a CC50 at 24 h in data set [6] of less than 1 µM. Besides, the CC50 in [9] and in data set [7] was 10 to 99 µM each time.
For `N#Cc1cn([C@@H]2O[C@](F)(CO)[C@@H](O)[C@H]2O)c2nc[nH]c(=O)c12` [Example 37, 7-((2R,3R,4S,5S)-5-fluoro-3,4-dihydroxy-5-(hydroxymethyl)tetrahydrofuran-2-yl)-4-oxo-4,7-dihydro-3H-pyrrolo[2,3-d]pyrimidine-5-carbonitrile], the EC50 in data set [1], in data set [2], in data set [8] and in data set [3] was more than 10 µM in each case. The CC50 at 72 h in data set [5] is more than 99 µM. In data set [6], this molecule came in with a CC50 at 24 h of more than 99 µM. Further, the CC50 in data set [9] and in data set [7] was more than 99 µM throughout.
Turning to `CCOc1nc(N)nc2c1ncn2[C@@H]1O[C@](F)(COP(=O)(N[C@@H](C)C(=O)OC(C)C)Oc2ccccc2)[C@@H](O)[C@@]1(C)Cl` (stereo partly drawn) [Example 64, isopropyl ((((2S,3R,4R,5R)-5-(2-amino-6-ethoxy-9H-purin-9-yl)-4-chloro-2-fluoro-3-hydroxy-4-methyltetrahydrofuran-2-yl)methoxy)(phenoxy)phosphoryl)-L-alaninate], the EC50 was 1 to 10 µM in [1], more than 10 µM in data set [2], more than 10 µM in data set [8] and more than 10 µM in data set [3]. The molecule further came in with a CC50 at 72 h in [5] of 10 to 99 µM. Moreover, the CC50 at 24 h in data set [6] lay within 10 to 99 µM. The CC50 in data set [9] and in [7] was 10 to 99 µM each time.
Turning to `CSc1ncnc2c1ccn2[C@@H]1O[C@](F)(CO)[C@@H](O)[C@H]1O` [Example 72, (2S,3S,4R,5R)-2-fluoro-2-(hydroxymethyl)-5-(4-(methylthio)-7H-pyrrolo[2,3-d]pyrimidin-7-yl)tetrahydrofuran-3,4-diol], the EC50 in [1] is 1 to 10 µM; in [2], 1 to 10 µM; in [8], more than 10 µM; in data set [3] it was more than 10 µM. In [5], this molecule had a cytotoxic concentration (CC50) at 72 h of 10 to 99 µM. Also, the CC50 at 24 h in data set [6] is 10 to 99 µM. For the same molecule, the figures for the CC50 in data set [9] and in data set [7] were 10 to 99 µM and more than 99 µM, respectively.
Take `Nc1ncnc2c1cnn2[C@@H]1O[C@](F)(CO)[C@@H](O)[C@H]1O` [Example 52, (2S,3S,4R,5R)-5-(4-amino-1H-pyrazolo[3,4-d]pyrimidin-1-yl)-2-fluoro-2-(hydroxymethyl)tetrahydrofuran-3,4-diol]: the EC50 is 1 to 10 µM in data set [1], 1 to 10 µM in [2], more than 10 µM in data set [8] and 1 to 10 µM in data set [3]. The CC50 at 72 h in data set [5] is less than 1 µM. The molecule further showed a CC50 at 24 h in [6] of 1 to 10 µM. For the same molecule, the CC50 in data set [9] and in [7] was 1 to 10 µM throughout.
Take `Nc1ncnc2c1ccn2[C@@H]1O[C@@](F)(CO)C[C@H]1O` [Example 12, (2R,3R,5S)-2-(4-amino-7H-pyrrolo[2,3-d]pyrimidin-7-yl)-5-fluoro-5-(hydroxymethyl)tetrahydrofuran-3-ol]: the EC50 in data set [1], in data set [2], in data set [8] and in data set [3] was more than 10 µM each time. The CC50 at 72 h in [5] was more than 99 µM. In addition, in data set [6], the CC50 at 24 h was more than 99 µM. Moreover, the figures for the CC50 in data set [9] and in [7] were more than 99 µM and 10 to 99 µM, respectively.
In the case of `Nc1ncnc2c1ccn2[C@@H]1O[C@](F)(CO)C[C@H]1O` [Example 11, (2R,3R,5R)-2-(4-amino-7H-pyrrolo[2,3-d]pyrimidin-7-yl)-5-fluoro-5-(hydroxymethyl)tetrahydrofuran-3-ol], the EC50 in data set [1], in data set [2], in data set [8] and in [3] was more than 10 µM throughout. This molecule also showed a CC50 at 72 h in [5] of 10 to 99 µM. In data set [6], this molecule registered a CC50 at 24 h of more than 99 µM. For the same molecule, the CC50 is more than 99 µM in data set [9] and 10 to 99 µM in data set [7].
